Laboratory results published in patent publication US20260077072A1, “METHODS AND COMPOSITIONS FOR IMAGING MALIGNANCIES IN THE BONE MARROW” (Washington University, priority 2022, published 2026).

Assays:
[1] = reported for other copper radiopharmaceuticals; cited from earlier work
[2] = test system: osteolytic lesion in the right iliac bone; experiment: 18F-FDG PET/CT of a multiple myeloma patient; format: in vivo, human; conditions: same osteolytic lesion in right iliac bone of MM patient
[3] = test system: CD-1 mice; experiment: Non-GLP tolerability and toxicity study of Cu-LLP2A V2, single IV bolus; format: in vivo
Description: To evaluate the tolerability and toxicity of Cu-CB-TE1A1P-PEG4-LLP2A V2 (Cu-LLP2A V2) tracer/imaging agent when administered once on Day 1 by intravenous (IV) bolus administration to male and female CD-1 mice, the following experiments were conducted. On Day 2 after administering the tracer/imaging agent, the first 10 animals/sex/group (Main Study) were sacrificed and necropsied. The remaining 5 animals/sex/group (Recovery) were weighed and observed for the remainder of the study and necropsied on Day 15.
Each treatment group (Groups 1-2) was comprised of […] CD-1 mice. Mice were administered either vehicle or 0.0604 mg/mouse Cu-LLP2A V2 (Groups 1 and 2, respectively) once on Day 1 via IV bolus injection at a dose volume of 0.125 mL/mouse. Physical examinations were recorded at the time of randomization. Clinical observations were recorded daily. Body weight measurements were taken for randomization and daily. Blood samples for the evaluation of hematology and clinical chemistry were collected on Day 2 (Main Study) and Day 15 (Recovery). Following blood sample collections, a necropsy was conducted. Protocol-specified tissues were collected and evaluated grossly, select organs were weighed, and tissues were fixed for microscopic evaluation. Tissues were subsequently processed and evaluated microscopically.

Compound: CN=C([S-])N/N=C(C)/C(C)=N/NC([S-])=NC.[64Cu+2] [^64Cu-ATSM]
- Effective dose [1]: 0.036 mSv/MBq

Compound: OC[C@H]1OC(O)[C@H]([18F])[C@@H](O)[C@@H]1O (stereo partly drawn) [^18F-FDG, [^18F]fluorodeoxyglucose]
- SUL-peak (per PERCIST) in lesion [2]: 2.1
- SUV-max in lesion [2]: 2.9

Compound: Cu-CB-TE1A1P-PEG4-LLP2A V2 [Cu-LLP2A V2]
- Survival ([3]; 0.0604 mg/mouse IV, until scheduled sacrifice (Day 2 or Day 15)): All animals survived
- Tolerability ([3]; single IV injection of 0.0604 mg/mouse, male and female CD-1 mice): well tolerated
- NOEL (No Observable Effect Level) ([3]; single IV injection, male and female CD-1 mice): 0.0604 mg/mouse
